# Entries after “also recorded” stand apart in the source; their conditions may differ. Where two headings read alike, the source gives them in different places.
# Experiments:
# SARS-CoV-2 [1] = assay: microbe, parasite or virus in culture; conditions: Severe acute respiratory syndrome coronavirus 2, Vero C1008, 24 h
# SARS-CoV-2 [2] = conditions: Vero E6 cells; for inhibition of SARS-CoV-2 in compound dilution series: 4 µM to 0.062 µM, 24 h post-infection
# SARS-CoV-2 [3] = assay: Survival screen: SARS-CoV-2-induced CPE, crystal violet staining; type: cell-based; conditions: Vero E6 cells, 1 µM, 2 h pretreatment, MOI 0.01, 48 h
# Description: Vero E6 cells were seeded in 96-well clear bottom, black wall plates (Costar, Tewksbury, MA, USA), at a density of 20,000 cells per well, one day prior to the experiment. Cells were pretreated for 2 h with 1 µM of each compound contained in the PRB. Remdesivir, K22 [17], and vehicle controls (DMSO) were included in each plate. Subsequently, cells were infected with SARS-CoV-2 at a multiplicity of infection (MOI) of 0.01 in compound-containing medium and incubated at 37 °C in a humidified incubator with 5% CO2. Uninfected (mock) controls were included in each plate. At 48 h post-infection (hpi), cells were fixed with 4% (v/v) neutral buffered formalin (Formafix AG, Hittnau, Switzerland) and stained with crystal violet. Cell viability and cytotoxicity were assessed in parallel, in identically treated, uninfected plates. […]
# To identify potential antiviral compounds against SARS-CoV-2 replication, 201 antibacterial, 46 antifungal and 153 antiviral molecules included in the PRB were screened using a conservative concentration of 1 µM. […] Cell survival was scored from 0 (virus-induced cytopathogenic effects; CPE) to 1 (no CPE), upon evaluation of SARS-CoV-2-induced CPE using crystal violet staining (Figure 1A). The cytotoxicity and cell viability were assessed on uninfected plates processed in parallel, to exclude detrimental effects of the compounds on the cells. […]
# [4] = CellTox green cytotoxicity assay on Vero E6 cells; conditions: African green monkey, Vero E6 cells (uninfected)
# [5] = CellTiter-Glo 2.0 cell viability assay on Vero E6 cells; conditions: African green monkey, Vero E6 cells (uninfected)
# [6] = CC50 determination on Calu-3 cells (cell viability); conditions: human
# Vero E6 cells [7] = assay: CellTox green cytotoxicity assay on Vero E6 cells; conditions: Vero E6 cells, uninfected plates, 48 h
# in vitro [8] = conditions: African green monkey
# SARS-CoV-2 [9] = assay: in vitro
# SARS-CoV-2 [10] = assay: microbe, parasite or virus in culture; type: cell-based; conditions: Severe acute respiratory syndrome coronavirus 2; Calu-3 cells, percentage of virus-infected cells, 2 h pretreatment, fixed 48 h post-infection
# in vitro [11] = conditions: African green monkey; remark: listed apart in the source
# Vero E6 cells [12] = assay: CellTiter-Glo 2.0 cell viability assay on Vero E6 cells; conditions: Vero E6 cells, uninfected plates, 48 h
# SARS-CoV-2 [13] = type: cell-based; conditions: Vero E6 supernatants, dose-dependent, TCID50
# SARS-CoV-2 [14] = assay: Time-of-addition experiment in Vero E6 cells; type: cell-based; conditions: 10 μM
# [15] = Selective Index (SI), CC50 divided by EC50, Vero E6 cells
compound,measurement,setting,value
CCN(CC)CCCC(C)Nc1ccnc2cc(Cl)ccc12 (centres unmarked) [Chloroquine],EC90,SARS-CoV-2 [1],10.4 µM
same,inhibition of SARS-CoV-2 in compound dilution series,SARS-CoV-2 [2],inhibited SARS-CoV-2 in a dose-dependent manner
O=C(N/C(=C\c1ccccc1)C(=O)N1CCC(O)(c2ccc(Br)cc2)CC1)c1ccccc1 [K22],inhibition of SARS-CoV-2-induced CPE in the survival screen,SARS-CoV-2 [3],did not show any inhibitory activity; also recorded: did not inhibit SARS-CoV-2 infection
"CCCCCCCCCN1C[C@H](O)[C@@H](O)[C@H](O)[C@H]1CO [NN-DNJ, N-Nonyl Deoxynojirimycin]",CC50 at 48 h,[4],> 100 µM
same,inhibition of SARS-CoV-2 in compound dilution series,SARS-CoV-2 [2],inhibited SARS-CoV-2 in a dose-dependent manner
same,CC50 at 48 h,[5],> 100 µM
same,CC50 at 48 h,[6],> 100 µM
Cc1ccc(C)c(OCCCCCCN2C[C@H](O)[C@@H](O)[C@H](O)[C@H]2CO)c1 [PBDNJ0803],CC50 at 48 h,[4],> 100 µM
same,inhibition of SARS-CoV-2 in compound dilution series,SARS-CoV-2 [2],inhibited SARS-CoV-2 in a dose-dependent manner
same,CC50 at 48 h,[5],> 100 µM
same,CC50 at 48 h,[6],> 100 µM
CCC(CC)COC(=O)[C@H](C)N[P@](=O)(OC[C@H]1O[C@@](C#N)(c2ccc3c(N)ncnn23)[C@H](O)[C@@H]1O)Oc1ccccc1 [Remdesivir],influence on cell cytotoxicity in the screen,Vero E6 cells [7],did not influence cell cytotoxicity
same,EC90,SARS-CoV-2 [1],3.39 µM
same,CC50,in vitro [8],> 100 µM
same,selectivity ratio,SARS-CoV-2 [9]; [15],> 73.8
same,EC50,SARS-CoV-2 [10],0.17 µM
same,"Selective Index (SI), CC50 divided by EC50",SARS-CoV-2 [2],> 73.85
same,CC50,in vitro [11],> 100 µM
same,influence on cell viability in the screen,Vero E6 cells [12],did not influence
Cc1nc(-c2ccc([C@@H]3N(C)c4ccc(F)cc4C(=O)N3c3ccccc3)s2)cs1 [Retro-2.1],CC50 at 48 h,[4],> 100 µM
same,EC90,SARS-CoV-2 [1],1.03 µM
same,reduction in viral titer,SARS-CoV-2 [13],strongest reduction
same,selectivity ratio,SARS-CoV-2 [9],> 239
same,EC50,SARS-CoV-2 [10],0.08 µM
same,inhibition of SARS-CoV-2 in compound dilution series,SARS-CoV-2 [2],inhibited SARS-CoV-2 in a dose-dependent manner
same,CC50 at 48 h,[5],> 100 µM
same,"inhibitory effect on SARS-CoV-2-infected cells, treatment after infection (condition 3)","SARS-CoV-2 [14]; MOI 0.01, 24 h post-infection",most pronounced inhibitory effect
same,"inhibitory effect on SARS-CoV-2-infected cells, treatment during infection (condition 2)","SARS-CoV-2 [14]; MOI 0.01, 24 h post-infection",more pronounced inhibition
same,"inhibitory effect on SARS-CoV-2-infected cells, treatment prior to infection (condition 1)","SARS-CoV-2 [14]; MOI 0.01, 24 h post-infection",only a marginal reduction
same,"reduction in viral titer, treatment after infection (condition 3)",SARS-CoV-2 [14]; supernatant at 24 h post-infection,> 1000 fold
same,CC50 at 48 h,[6],> 100 µM
CN1CCN(Cc2ccc(-c3cnc4[nH]cc(-c5ccc6[nH]ccc6c5)c4c3)cc2)CC1 [URMC-099-C],CC50 at 48 h,[4],24.9 µM
same,EC90,SARS-CoV-2 [1],1.83 µM
same,selectivity ratio,SARS-CoV-2 [9]; [15],50.7
same,"Selective Index (SI), CC50 divided by EC50",SARS-CoV-2 [2],50.69
same,inhibition of SARS-CoV-2 in compound dilution series,SARS-CoV-2 [2],inhibited SARS-CoV-2 in a dose-dependent manner
same,CC50 at 48 h,[5],14.7 µM
same,CC50 at 48 h,[6],15.5 µM

# Reference: paper PMC7760777 (Microorganisms, 2020)
